Results reported in patent US10449168B2 (The University of Toledo, priority 2015, dated 2019).
Entries after “also recorded” stand apart in the source; their conditions may differ.

Experiments:
Assay type in all cases: biochemical
[1] = target: T1, aspartate N-acetyltransferase (ANAT) (Homo sapiens, UniProt Q8N9F0); assay: ANAT substrate selectivity (acetyl group acceptor); settings: glutamate vs. aspartate as acetyl acceptor
T1 sequence (Q8N9F0 1-302): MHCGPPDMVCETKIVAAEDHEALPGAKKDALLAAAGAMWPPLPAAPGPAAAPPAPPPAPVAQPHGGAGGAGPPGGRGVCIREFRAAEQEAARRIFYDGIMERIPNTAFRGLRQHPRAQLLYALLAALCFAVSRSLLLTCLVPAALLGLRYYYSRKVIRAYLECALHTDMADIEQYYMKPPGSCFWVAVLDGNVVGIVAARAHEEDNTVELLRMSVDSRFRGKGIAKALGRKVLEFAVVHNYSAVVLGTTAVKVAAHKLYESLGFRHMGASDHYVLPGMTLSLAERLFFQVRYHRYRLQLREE
From the text: ANAT is difficult to purify.

[2] = target: T2, Vibrio cholerae aspartate semialdehyde dehydrogenase (vcASADH) (Vibrio cholerae serotype O1, UniProt P23247); assay: biochemical; settings: relative to parent or neighbouring derivative
T2 construct: made in house
T2 sequence (P23247 whole entry): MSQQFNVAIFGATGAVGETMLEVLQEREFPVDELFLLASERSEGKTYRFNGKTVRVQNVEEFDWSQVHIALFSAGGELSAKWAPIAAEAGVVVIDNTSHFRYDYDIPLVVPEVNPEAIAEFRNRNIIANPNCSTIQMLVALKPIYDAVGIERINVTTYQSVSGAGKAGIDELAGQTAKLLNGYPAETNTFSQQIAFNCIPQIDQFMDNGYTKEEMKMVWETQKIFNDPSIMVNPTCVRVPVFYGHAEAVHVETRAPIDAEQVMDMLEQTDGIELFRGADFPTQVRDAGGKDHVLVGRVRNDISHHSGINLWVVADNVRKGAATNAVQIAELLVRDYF

[3] = target: Streptococcus pneumoniae aspartate semialdehyde dehydrogenase (spASADH) (Streptococcus pneumoniae, UniProt Q8DQ00); assay: biochemical; settings: relative to parent or neighbouring derivative
[4] = target: T3, Streptococcus pneumoniae aspartate semialdehyde dehydrogenase (spASADH) (Streptococcus pneumoniae, UniProt Q8DQ00); assay: spASADH kinetic assay: reverse direction, NADPH absorbance at 340 nm; Ki from Dixon plot assuming competitive inhibition against ASA; settings: pH 8.6, r.t., 0.15 mM ASA, 1.5 mM NADP, 20 mM phosphate
T3 construct: homodimer from general knowledge
T3 sequence (Q8DQ00 1-358): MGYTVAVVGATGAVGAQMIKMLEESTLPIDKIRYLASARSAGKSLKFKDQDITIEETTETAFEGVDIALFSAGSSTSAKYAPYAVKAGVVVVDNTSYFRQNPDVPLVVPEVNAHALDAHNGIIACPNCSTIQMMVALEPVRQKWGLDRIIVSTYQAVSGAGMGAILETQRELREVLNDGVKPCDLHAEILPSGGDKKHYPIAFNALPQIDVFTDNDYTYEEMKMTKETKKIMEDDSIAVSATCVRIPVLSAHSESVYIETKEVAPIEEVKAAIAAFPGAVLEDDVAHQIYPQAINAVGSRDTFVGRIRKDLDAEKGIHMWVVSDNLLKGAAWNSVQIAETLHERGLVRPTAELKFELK

[5] = target: Vibrio cholerae aspartate semialdehyde dehydrogenase (vcASADH); assay: vcASADH kinetic assay: reverse direction, NADPH absorbance at 340 nm; Ki from Dixon plot assuming competitive inhibition against ASA; settings: pH 8.6, r.t., 0.3 mM ASA, 1.5 mM NADP, 20 mM phosphate

N[C@@H](CCC(=O)O)C(=O)O [glutamate]
catalytic efficiency relative to that of the physiological substrate [1]: less than 1%

O=C(O)c1ccc(CN[C@@H](CO)C(=O)O)cc1C(=O)O [Compound 6, N-((2-hydroxymethyl)carboxymethyl)-3,4-dicarboxybenzylamine]
inhibition / binding affinity for vcASADH (in words) [2]: no appreciable effect on the binding affinity | inhibition / binding affinity for spASADH (in words) [3]: no appreciable effect on the binding affinity; also recorded: did not lead to enhanced affinity | Ki ([4]; FIG. 4, Table 1): 324 ± 24 µM | Ki ([5]; FIG. 4, Table 1): 654 ± 22 µM

C[C@H](NCc1ccc(C(=O)O)c(C(=O)O)c1)C(=O)O [Compound 5, N-((2-methyl)carboxymethyl)-3,4-dicarboxybenzylamine]
inhibition / binding affinity for vcASADH (in words) [2]: no appreciable effect on the binding affinity | inhibition / binding affinity for spASADH (in words) [3]: no appreciable effect on the binding affinity; also recorded: did not lead to enhanced affinity | Ki ([4]; FIG. 4, Table 1): 296 ± 26 µM | Ki ([5]; FIG. 4, Table 1): 609 ± 23 µM

O=C(O)CN(Cc1cccc(C(F)(F)F)c1)Cc1ccc(C(=O)O)c(C(=O)O)c1 [Compound 25, N-(3-trifluoromethylbenzyl)-N-carboxymethyl-3,4-dicarboxybenzylamine]
inhibition / binding affinity for vcASADH (in words) [2]: did not alter the affinity | inhibition / binding affinity for spASADH (in words) [3]: did not alter the affinity | Ki ([4]; FIG. 5, Table 2): 441 ± 27 µM | Ki ([5]; FIG. 5, Table 2): 678 ± 36 µM
